Results as given in the Kinase Knowledgebase extract (Sharma et al. 2016).

Target: CDK2 (UniProt P24941)
Experiment: Enzyme Assay

## COc1ccc(CNc2nc(NCCCNC(=O)[C@H]3CSC(=O)N3)nc3c2ncn3C(C)C)cc1
  IC50: 2 µM
